How the values were obtained:
S. pneumoniae [1] = assay: Transmission electron microscopy (TEM) of treated cells; assay type: cell-based, Streptococcus pneumoniae; conditions: 10^8 CFU/ml in CAMHB; 8 × MIC (125 µg/ml; RN7-IN7 500 µg/ml); 1 h, 37 °C, 5% CO2
Protocol: Bacteria were prepared for TEM according to the guidelines of the Electron Microscopy Unit at the Faculty of Medicine, University of Malaya. S. pneumoniae cultures were grown overnight on Columbia agar with 5% sheep blood and suspended in cationally adjusted Mueller-Hinton broth (CAMHB) at 10^8 CFU/ml. […] Cells in cationally adjusted Mueller-Hinton broth (CAMHB) were used as an untreated control. After an hour of incubation, the pneumococcal cells were centrifuged to discard the medium, washed thrice with 10 mM phosphate buffer saline at pH 7.3 and fixed overnight in 4% (v/v) glutaraldehyde. All samples were washed twice with cacodylate buffer, incubated for 2 h in osmium tetroxide buffer (OsO4 1: 1 cacodylate), washed twice with cacodylate buffer and then incubated overnight in cacodylate buffer. All the samples were washed with distilled water twice and incubated for 10 min with uranyl acetate. After this, all samples were then washed twice with distilled water and dehydrated in an ascending series of ethanol: 35% (10 min), 50% (10 min), 70% (10 min), 95% (15 min), and thrice in 100% ethanol (15 min). After dehydration, samples were incubated with propylene oxide (15 min), propylene oxide 1:1 Epon (1 h), propylene oxide 1:3 Epon (2 h) and finally incubated overnight with Epon. All the samples were embedded in agar 100 resin at 37 °C for 5 hr and maintained at 60 °C until viewing. Reichert Ultramicrotome copper grids 3.05 mm (300 square mesh) (Agar Scientific, Essex, United Kingdom) were used to prepare Ultrathin sections. Ethanol-based uranyl acetate and lead citrate were used to stain the samples for 5 min. Transmission electron microscope (Leo Libra 120) was used to capture the images.

S. pneumoniae [2] = assay: ATP efflux assay; assay type: cell-based, Streptococcus pneumoniae; conditions: peptides 125 µg/ml (RN7-IN7 500 µg/ml); for ATP released from pneumococcal cells after 3 h / ATP released from pneumococcal cells after 1 h: 1 × 10^7 CFU/ml, luciferin/luciferase, ATP standard curve, mean ± SD, three independent experiments
Protocol: The amount of ATP released from pneumococcal cells incubated with hybrid peptides was measured as described previously, with a slight modification ([Tanida et al., 2006]). The ATP determination kit (Molecular Probes, Eugene, OR, USA) was used to measure the amount of ATP released based on the luciferin/luciferase method according to the manufacturer’s instructions. Briefly, S. pneumoniae were grown overnight on Columbia agar with 5% sheep blood. Bacterial suspensions were spectrophotometrically adjusted to (1 × 10^7 CFU/ml) and incubated with hybrid peptides RN7-IN10, RN7-IN9, RN7-IN8 and RN7-IN6 at 125 µg/ml and with RN7-IN7 at 500 µg/ml. The amount of ATP released form the pneumococcal cells were measured at three time points 1, 2 and 3 h. The samples were then centrifuged at 5,000 rpm for 5 min, and ATP efflux was subsequently estimated using an ATP standard curve. Values were obtained from three independent experiments. Ceftriaxone and erythromycin were used as positive controls.

Streptococcus pneumoniae = conditions: 30 pneumococcal clinical isolates; earlier study; ref Jindal et al., 2015; cited from earlier work
Text: Table 1 Sequences and physicochemical properties of the template and hybrid AMPs. | column: MIC^a || One of the advantageous alternatives to today’s antibiotics is antimicrobial peptides (AMPs) ([Deslouches et al., 2013]; [Sánchez-Vásquez et al., 2013]). AMPs are synthesized by almost all living beings as the first line of defense in their immune system against microbial infection. Many aspects favor AMPs over traditional antibiotics: a broad range of antimicrobial activity against pathogenic micro-organisms (including viruses, parasites, bacteria, and fungi), microbial pathogens are less efficient in developing resistance against AMPs, as killing take place in a short contact time and AMPs c ...

Row | Substance | TEM: detachment of cell wall from cell membrane (S. pneumoniae [1]) | ATP released from pneumococcal cells after 3 h (S. pneumoniae [2]) | MIC, minimum inhibitory concentration (Streptococcus pneumoniae) | ATP released from pneumococcal cells after 1 h (S. pneumoniae [2]) | ATP released, Average 1hr (S. pneumoniae [2]; raw data sheet, mean of 3) | ATP released, Average 2hr (S. pneumoniae [2]; raw data sheet, mean of 3) | ATP released, Average 3hr (S. pneumoniae [2]; raw data sheet, mean of 3)
1 | FLGGLIKKWPWWPWRR-NH2 [RN7-IN9, hybrid peptide of ranalexin (residues 1-7) and indolicidin (residues 5-13)] | partial disconnection of the cell wall from the cell membrane | 22.9 ± 3.22 pM | 7.81 to 15.62 mg/L |  |  |  | 
2 | FLGGLIKWKWPWWPWRR-NH2 [RN7-IN10, hybrid peptide of ranalexin (residues 1-7) and indolicidin (residues 4-13)] |  | 25.42 ± 3.51 pM | 7.81 to 15.62 mg/L | 54.5 ± 4.7 pM | 54.4965 pM | 41.9293 pM | 25.4295 pM
3 | FLGGLIKWPWWPWRR-NH2 [RN7-IN8, hybrid peptide of ranalexin (residues 1-7) and indolicidin (residues 6-13)] | partial disconnection of the cell wall from the cell membrane | 20.54 ± 1.03 pM | 7.81 to 15.62 mg/L | 39.03 ± 0.2 pM |  |  | 
4 | FLGGLIKWWPWRR-NH2 [RN7-IN6, hybrid peptide of ranalexin (residues 1-7) and indolicidin (residues 8-13)] | partial disconnection of the cell wall from the cell membrane | 11.47 ± 0.32 pM | 7.81 to 15.62 mg/L | 14.8 ± 0.35 pM |  |  | 
